{
  "source": "patent US11096924B2",
  "about": "“Combination therapies using immuno-dash inhibitors and PGE2 antagonists” (Trustees of Tufts College, priority 2016, dated 2021)",
  "key": {"RAW 264.7 WT cells": {"tested_on": "RAW 264.7 WT cells", "test": "Pyroptosis in RAW 264.7 WT cells", "assay_type": "cell-based", "conditions": "Mus musculus, RAW264.7"}, "[1]": {"tested_on": "MB49 murine urothelial carcinoma cell line", "test": "MB49 efficacy studies in tumor bearing mice", "assay_type": "in vivo"}, "[2]": {"test": "Maximum tolerated dose study (single dose) in Sprague Dawley rats", "assay_type": "in vivo", "conditions": "SD rats, based on serum drug levels, with Pyrrophenone or AACOCF3", "excerpt": "Bars show the MTD single dose in SD rats prior to seeing animal death. […] See also FIG. 17 for a similar comparison using cPLA2 inhibitors instead of COX inhibitors.\nBars show the MTD single dose in SD rats prior to seeing animal death. Based on serum drug levels, the addition of a cPLA2 inhibitor to the I-DASH inhibitor increases that MTD dose by at least 20-fold.\nBars show the MTD single dose in SD rats prior to seeing animal death."}, "THP-1 sgGFP": {"tested_on": "THP-1 sgGFP", "test": "Pyroptosis in THP-1 sgGFP cells", "assay_type": "cell-based", "conditions": "Homo sapiens"}, "macrophages": {"tested_on": "macrophages", "test": "Pyroptosis of macrophages in cell culture", "assay_type": "cell-based", "conditions": "Macrophage; Example 2 table; unit inferred"}, "[3]": {"conditions": "phase I trial of talabostat and rituximab in rituximab-resistant lymphoma; cited from earlier work"}, "MV4; 11 Luc-Neo": {"tested_on": "MV4; 11 Luc-Neo", "test": "Pyroptosis in MV4;11 Luc-Neo cells", "assay_type": "cell-based", "conditions": "Homo sapiens"}, "[4]": {"molecular_target": "recombinant human dipeptidyl peptidase II (DPPII) (Homo sapiens (Human), UniProt Q9UHL4)", "test": "In vitro inhibition assay, dipeptidyl peptidase II", "assay_type": "biochemical", "conditions": "DPP2"}, "[5]": {"molecular_target": "recombinant human dipeptidyl peptidase IV (DPPIV) (Homo sapiens (Human), UniProt P27487)", "sequence (P27487 whole entry)": "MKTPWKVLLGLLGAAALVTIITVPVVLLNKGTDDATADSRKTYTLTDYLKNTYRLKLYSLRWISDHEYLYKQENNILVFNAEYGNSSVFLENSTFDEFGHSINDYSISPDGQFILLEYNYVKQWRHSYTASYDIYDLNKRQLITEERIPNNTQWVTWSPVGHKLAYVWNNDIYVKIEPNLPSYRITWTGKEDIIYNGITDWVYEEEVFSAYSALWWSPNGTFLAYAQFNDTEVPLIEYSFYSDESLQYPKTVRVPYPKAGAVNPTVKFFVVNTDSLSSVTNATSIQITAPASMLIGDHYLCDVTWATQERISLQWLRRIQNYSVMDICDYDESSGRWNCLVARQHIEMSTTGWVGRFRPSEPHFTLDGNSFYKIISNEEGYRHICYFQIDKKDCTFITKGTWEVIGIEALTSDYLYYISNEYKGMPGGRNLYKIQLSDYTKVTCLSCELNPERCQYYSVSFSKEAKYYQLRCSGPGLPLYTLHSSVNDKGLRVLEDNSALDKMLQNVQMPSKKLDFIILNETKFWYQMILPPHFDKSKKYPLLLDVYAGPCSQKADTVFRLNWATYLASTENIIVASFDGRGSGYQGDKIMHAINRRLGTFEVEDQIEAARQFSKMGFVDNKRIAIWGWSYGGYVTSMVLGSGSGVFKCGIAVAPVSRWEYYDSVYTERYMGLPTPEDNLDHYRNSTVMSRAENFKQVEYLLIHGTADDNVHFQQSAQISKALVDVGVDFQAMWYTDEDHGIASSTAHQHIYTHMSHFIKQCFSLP", "test": "In vitro inhibition assay, dipeptidyl peptidase IV", "assay_type": "biochemical"}, "DPP4": {"molecular_target": "DPP4 (Homo sapiens (Human), UniProt P27487)", "sequence (P27487 whole entry)": "as above", "test": "EnPlex assay DPP4", "assay_type": "biochemical"}, "DPP7": {"molecular_target": "DPP7 (Homo sapiens (Human), UniProt Q9UHL4)", "test": "EnPlex assay DPP7", "assay_type": "biochemical"}, "[6]": {"test": "Oral PK profile in mice, plasma drug concentrations", "assay_type": "in vivo, BALB/c mice", "conditions": "3 mg/kg oral gavage, individual mice #1-#3", "description": "Example 8. […] Drugs dissolved in pH 2 water at 0.3 mg/mL. […] 2. Plasma prepared by centrifugation. 3. Drug concentrations measured by LCMS."}},
  "note": "“And” between values parts separate entries of the source, which are not always exact repeats. Equal entries are not always repeated. Where two headings read alike, the source gives them in different places.",
  "data": [
    {"smiles": "CC(C)[C@H](N)C(=O)N1CCC[C@H]1B(O)O", "note": "[Val-boroPro, Valine-boroProline]", "values": [
      {"measurement": "IC50", "setting": "RAW 264.7 WT cells", "result": 98, "unit": "nM"},
      {"measurement": "tumor regression in combination with celecoxib", "setting": "[1]; 20 microgram dose of Val-boroPro plus celecoxib, individual animal curves", "result": "facilitated the achievement of tumor regression"},
      {"measurement": "antitumor activity in combination with celecoxib", "setting": "[1]; Val-boroPro plus celecoxib, tumor volumes over time", "result": "increased the antitumor activity of Val-boroPro markedly (statistically significantly) and in a dose-dependent manner"},
      {"measurement": "increase of MTD dose on addition of a cPLA2 inhibitor", "setting": "[2]", "result": "at least 20 fold"},
      {"measurement": "IC50", "setting": "THP-1 sgGFP", "result": 168, "unit": "nM"},
      {"measurement": "IC50", "setting": "macrophages", "result": 49, "unit": "nM"},
      {"measurement": "Average [G-CSF] at 6 hrs", "setting": "G-CSF; 20 μg/animal PO", "result": 55000, "unit": "pg/mL"},
      {"measurement": "Average [G-CSF] at 6 hrs", "setting": "G-CSF; 20 μg/animal SC", "result": 97000, "unit": "pg/mL"},
      {"measurement": "partial response", "setting": "[3]", "result": 3, "unit": "patients"},
      {"measurement": "IC50", "setting": "MV4; 11 Luc-Neo", "result": 60, "unit": "nM"}
    ]},
    {"smiles": "C[C@H](N)C(=O)N1CCC[C@H]1B(O)O", "note": "[compound 1129]", "values": [
      {"measurement": "IC50", "setting": "macrophages", "result": "> 10000", "unit": "nM"}
    ]},
    {"smiles": "N[C@@H](CC(=O)N1CCn2c(nnc2C(F)(F)F)C1)Cc1cc(F)c(F)cc1F", "note": "[Sitagiptin, reference compound]", "values": [
      {"measurement": "Average [G-CSF] at 6 hrs", "setting": "G-CSF; 100 μg/animal SC", "result": 100, "unit": "pg/mL"},
      {"measurement": "Average [G-CSF] at 6 hrs", "setting": "G-CSF; 1000 μg/animal PO", "result": 340, "unit": "pg/mL"},
      {"measurement": "Average [G-CSF] at 6 hrs", "setting": "G-CSF; 2000 μg/animal SC", "result": 950, "unit": "pg/mL"}
    ]},
    {"smiles": "N[C@H](C(=O)N1CCC[C@H]1B(O)O)C12CC3CC(CC(F)(C3)C1)C2", "note": "[ARI-5870]", "values": [
      {"measurement": "IC50", "setting": "[4]", "result": 58, "unit": "nM"}
    ]},
    {"smiles": "CC1(C)CCN[C@@H]1C(=O)N1CCC[C@H]1B(O)O", "note": "(relative stereo) [compound 5363]", "values": [
      {"measurement": "IC50", "setting": "[4]", "result": 110, "unit": "nM"}
    ]},
    {"smiles": "CC[C@H](C)[C@H](N)C(=O)N1CCC[C@H]1B(O)O", "note": "[compound 4316, theoric-boroPro]", "values": [
      {"measurement": "IC50", "setting": "macrophages", "result": 21, "unit": "nM"},
      {"measurement": "Average [G-CSF] at 6 hrs", "setting": "G-CSF; 20 μg/animal PO", "result": 5000, "unit": "pg/mL"}
    ]},
    {"smiles": "CC(C)[C@H](N)C(=S)N1CCC[C@H]1B(O)O", "note": "[compound 2401]", "values": [
      {"measurement": "IC50", "setting": "macrophages", "result": "> 20000", "unit": "nM"}
    ]},
    {"smiles": "N[C@H](C(=O)N1CCC[C@H]1B(O)O)C1(C(F)(F)F)CC1", "note": "[compound 4949]", "values": [
      {"measurement": "IC50", "setting": "[4]", "result": 39, "unit": "nM"}
    ]},
    {"smiles": "CC[C@@H](C)[C@H](N)C(=O)N1CCC[C@H]1B(O)O", "note": "[compound 4317]", "values": [
      {"measurement": "IC50", "setting": "macrophages", "result": 13, "unit": "nM"}
    ]},
    {"smiles": "N[C@H](C(=O)N1CCC[C@H]1B(O)O)C12CC3CC(CC(Cl)(C3)C1)C2", "note": "(relative stereo) [ARI-3102C]", "values": [
      {"measurement": "IC50", "setting": "[5]", "result": 6, "unit": "nM"},
      {"measurement": "IC50", "setting": "DPP4", "result": 6, "unit": "pM"}
    ]},
    {"smiles": "CC(C)(F)[C@H](N)C(=O)N1CCC[C@H]1B(O)O", "note": "(relative stereo) [ARI-4268]", "values": [
      {"measurement": "IC50", "setting": "[5]", "result": 12, "unit": "nM"},
      {"measurement": "IC50", "setting": "[4]", "result": 68, "unit": "nM"}
    ]},
    {"smiles": "CC1([C@H](N)C(=O)N2CCC[C@H]2B(O)O)CCCCC1", "note": "(relative stereo) [ARI-4175CH]", "values": [
      {"measurement": "IC50", "setting": "[5]", "result": 2.8, "unit": "nM"},
      {"measurement": "IC50", "setting": "[4]", "result": 54, "unit": "nM"},
      {"measurement": "IC50", "setting": "DPP7", "result": "> 100", "unit": "nM"},
      {"measurement": "concentration in Plasma", "setting": "[6]; 5 min post-dose", "result": "0.23 µM and 0.42 µM"},
      {"measurement": "concentration in Plasma", "setting": "[6]; 10 min post-dose", "result": "0.25 µM and 0.09 µM"},
      {"measurement": "concentration in Plasma", "setting": "[6]; 20 min post-dose", "result": "0.23 µM and 0.27 µM"},
      {"measurement": "concentration in Plasma", "setting": "[6]; 30 min post-dose", "result": 0.13, "unit": "µM"},
      {"measurement": "concentration in Plasma", "setting": "[6]; 40 min post-dose", "result": "0.25 µM and 0.19 µM"},
      {"measurement": "concentration in Plasma", "setting": "[6]; 60 min post-dose", "result": "0.00 µM and 0.09 µM"},
      {"measurement": "concentration in Plasma", "setting": "[6]; 120 min post-dose", "result": "0.07 µM and 0.09 µM"},
      {"measurement": "concentration in Plasma", "setting": "[6]; 240 min post-dose", "result": 0.01, "unit": "µM"},
      {"measurement": "concentration at 5 min", "setting": "[6]; male, BALB/c, mouse, plasma, oral, 3 mg/kg, 5 min post-dose", "result": 280, "unit": "nM"},
      {"measurement": "concentration at 20 min", "setting": "[6]; male, BALB/c, mouse, plasma, oral, 3 mg/kg, 20 min post-dose", "result": 230, "unit": "nM"},
      {"measurement": "concentration at 30 min", "setting": "[6]; male, BALB/c, mouse, plasma, oral, 3 mg/kg, 30 min post-dose", "result": 240, "unit": "nM"},
      {"measurement": "concentration at 40 min", "setting": "[6]; male, BALB/c, mouse, plasma, oral, 3 mg/kg, 40 min post-dose", "result": 170, "unit": "nM"},
      {"measurement": "concentration at 120 min", "setting": "[6]; male, BALB/c, mouse, plasma, oral, 3 mg/kg, 120 min post-dose", "result": 70, "unit": "nM"},
      {"measurement": "concentration at 240 min", "setting": "[6]; male, BALB/c, mouse, plasma, oral, 3 mg/kg, 240 min post-dose", "result": 10, "unit": "nM"},
      {"measurement": "Average [G-CSF] at 6 hrs", "setting": "G-CSF; 5 μg/animal PO", "result": 1100, "unit": "pg/mL"},
      {"measurement": "Average [G-CSF] at 6 hrs", "setting": "G-CSF; 20 μg/animal PO", "result": 51000, "unit": "pg/mL"},
      {"measurement": "Average [G-CSF] at 6 hrs", "setting": "G-CSF; 20 μg/animal SC", "result": 60000, "unit": "pg/mL"},
      {"measurement": "IC50", "setting": "DPP4", "result": 5, "unit": "pM"}
    ]}
  ]
}
